Values joined by “and” are separate entries in the source; they are usually repeats but may differ in a detail not shown here. Identical values can stand only once. “Also recorded” adds a separate entry of the source.
How the values were obtained:
T84 monolayers [1] = assay: Hepoxilin A3 degradation in apical and basolateral compartments of T84 monolayers; assay type: in vitro ADME, human; conditions: for time to 50% loss of intact compound (T1/2), average: average of two experiments
Protocol: (§1) First, any potential gradient by adding excess synthetic hepoxilin A3 to the basolateral compartment was counteracted. […] The establishment of a hepoxilin A3 gradient was next measured quantitatively. […] Hepoxilin A3 decay in both compartments was exponential and the above stated T1/2 values were determined by analyzing the slope of a best-fit line to a log-linear analysis of each data set. Because of the complex degradation events occurring in both the apical and basolateral compartments, no attempt was made to calculate a transport rate. Instead, the extent of recovery of hepoxilin A3 from the basolateral compartment following an apical application of 4500 pmoles was measured.

PMN [2] = assay: PMN degranulation assessed by elastase release; assay type: cell-based, human
Description: (§2) To substantiate the notion that hepoxilin A3 was in fact the molecule responsible for PEEC bioactivity, it was examined whether synthetic hepoxilin A3 (BIOMOL, Plymouth Meeting, Pa.) could recapitulate PEEC bioactivity. […] Thus, authentic hepoxilin A3 recapitulates all known aspects of PEEC bioactivity consistent with the notion that hepoxilin A3 is in fact PEEC's active component.

PMN [3] = assay: PMN intracellular Ca2+ mobilization; assay type: cell-based, human
Description: Further, crude PEEC preparations were collected from postinfected T84 cells monolayers. Samples were first passed through an Amicon ultra-filtration apparatus (Millipore Corp.; Bedford, Mass.) fitted with a 2,000 Da cut-off membrane. Filtrate components were bound to a Backerbond spe™ octadecyl extraction column (J. T. Baker; Philipsburg, N.J.) that was subsequently eluted with water, hexane, and finally methanol. The methanol fraction was dried under vacuum and resuspended in 50:50 (vol:vol) methanol:2 mM Tris HCl (pH 7.5) and injected onto a Vydac C18 (10 μm; 300 Å) semi-preparative column ([…]) equilibrated with 2 mM Tris-HCl (pH 7.5). A methanol gradient of 1-10% over 10 minutes, then 10-60% over 25 minutes, followed by 60-100% over 45 minutes (all at room temperature) was used to isolate active PEEC fractions. Active fractions, having no detectable absorbance at 280 nm and weak absorbance at 214 nm, were analyzed using a Genesis C18 (4 μm, 120 Å) analytical HPLC column (4.6×150 mm) equilibrated with 5 mM triethylamine/acetic acid (pH 7.2). […] (FIG. 2A and B).
as §2

[4] = system: PMN transmigration across T84 cell monolayers; assay: PMN transepithelial migration to imposed gradients of lipids across T84 monolayers; assay type: cell-based, human; conditions: for PMN transepithelial migration (PEEC activity) induced by added lipid: imposed gradients across T84 cell monolayers, basolateral-to-apical
Protocol: Crude preparations of PEEC were collected from the apical surface of polarized T84 cell monolayers following infection with S. typhimurium SL1344 as previously described (McCormick et al., 1998). For these experiments, T84 intestinal epithelial cells (passages 45 to 65) were grown in a 1:1 mixture of Dulbecco-Vogt modified Eagles medium and Ham's F-12 medium supplemented with 15 mM Hepes buffer (pH 7.5), 14 mM NaHCO3, 40 mg/liter penicillin, 8 mg/liter ampicillin, 90 mg/liter streptomycin and 5% newborn calf serum. Polarized monolayers of T84 cells were formed and maintained on 0.33 cm^2 ring-supported collagen-coated polycarbonate filters (Costar Corp., Cambridge, Mass.) as previously described (Madara et al., 1992) with recently detailed modifications (Dharmsathaphorn and Madara, 1990). T84 cell monolayers reached a steady-state resistance 4 to 6 days after plating with some variability largely related to cell passage number. Cell culture inserts of inverted monolayers, used to study transmigration of PMN in the physiological basolateral-to-apical direction, were constructed as previously described (Madara et al., 1992; Dharmsathaphorn and Madara, 1990; Nash et al., 1991).
(§3) It was further examined if hepoxilin A3 acts in a gradient fashion to drive PMN migration from the basolateral to the apical epithelial surface. For these experiments, the physiologically directed (basolateral-to-apical) PMN transepithelial migration assay using cell culture inserts of inverted T84 monolayers has been used (McCormick et al., 1993; Parkos et al., 1992). Human PMN were isolated from normal volunteers, as described elsewhere (Parkos et al., 1992; Henson and Oades, 1975). PMN transmigration results were represented as PMN cell equivalents (CE) derived from a daily standard PMN dilution curve. PMN which completely traversed the monolayer were represented as the number of PMN (CE/ml in a total volume of 1 ml). Values were expressed as the mean and SD of an individual experiment done in triplicate repeated at least 3 times.
Arachidonic acid is the initial substrate used by a variety of metabolic pathways involving lipoxygenase (LO) activities—enzymes that add hydroxyl groups at specific carbon atoms of this 20-carbon fatty acid. […] Therefore, in addition to hepoxilin A3, a wide range of arachidonic acid metabolites for their ability to incite the transmigration of PMNs across T84 monolayers in vitro was examined (Table 1). […] This is consistent with previous reports that LTB4 is capable of inducing PMN transmigration.

T84 monolayers [5] = assay: Recovery of hepoxilin A3 in basolateral compartment after apical application to T84 monolayers; assay type: in vitro ADME, human; conditions: apical application of 4500 pmoles, over 90 minutes
Protocol: as §1

[6] = system: PMN transmigration across T84 cell monolayers; assay: Disruption of hepoxilin A3 gradient by basolateral addition, PMN transepithelial migration across T84 monolayers; assay type: cell-based, human; conditions: 5 μg/ml basolateral; migration induced by S. typhimurium, recombinant SipA or imposed gradients of hepoxilin A3
Description: as §3
First, any potential gradient by adding excess synthetic hepoxilin A3 to the basolateral compartment was counteracted. […] The establishment of a hepoxilin A3 gradient was next measured quantitatively. […] Hepoxilin A3 decay in both compartments was exponential and the above stated T1/2 values were determined by analyzing the slope of a best-fit line to a log-linear analysis of each data set. […] Instead, the extent of recovery of hepoxilin A3 from the basolateral compartment following an apical application of 4500 pmoles was measured.

[7] = Stability in acidified acetonitrile; assay type: physicochemical; conditions: overnight incubation in acid
Protocol: Molecules of the 5-LO, 8-LO, 12-LO and 15-LO pathways of arachadonic metabolism were analyzed by LC/MS breakdown patterns and compared to PEEC. […] Methylation of PEEC samples and hepoxilin A3 also provided similar ion spectra (data not shown). […] PEEC activity was also observed to have other chemical properties similar to hepoxilin A3, such as being labile in the presence of acetonitrile/0.1% trifluoroacetic acid (FIG. 3D).

[8] = system: P. aeruginosa-induced PMN transepithelial migration, A549 cells; assay: P. aeruginosa-induced PMN transepithelial migration across A549 cell monolayers; assay type: cell-based, human; conditions: excess hepoxilin A3 added to basolateral compartment; data not shown
Description: It was further determined whether similar hepoxilin A3 recruitment of PMN by apically attached pathogens might occur at other mucosal surfaces. Pseudomonas aeruginosa is the most prominent bacterial spp. present during chronic infection in cystic fibrosis and chronic obstructive pulmonary disease patients and is accompanied by severe inflammation, including the emigration of PMN to the airway lumen (Pizurki et al., 2000; Jahn et al., 2000; Weiss, S. 1989). As a model for the airway epithelium the A549 cell line was used. This cell line is capable of forming a polarized barrier, and is widely employed as a model for the airway epithelial surface (Smart and Casale, 1994). […] Finally, the secretion of hepoxlin A3 in vitro was quantified using this A549 model system. For these experiments, A549 lung epithelial cells (ATTC) were grown in F12K media (Invitrogen) with 10% FBS, and maintained in culture similar to the T84 cell line. The wild type P. aeruginosa (PAO1) was used for infection of A549 after overnight aerobic growth (Luria broth) at 37° C.

CCCCC/C=C\C[C@@H]1O[C@H]1/C=C/C(O)C/C=C\CCCC(=O)O (some centres unmarked) [hepoxilin A3]
time to 50% loss of intact compound (T1/2), single experiments (T84 monolayers [1]; apical chamber): 77 min and 87 min | time to 50% loss of intact compound (T1/2), average (T84 monolayers [1]; apical chamber of T84 monolayers): 82 min | time to 50% loss of intact compound (T1/2), single experiments (T84 monolayers [1]; basolateral compartment): 49 min and 37.5 min | time to 50% loss of intact compound (T1/2), average (T84 monolayers [1]; basolateral compartment of T84 monolayers): 43 min | PMN degranulation (PMN [2]): did not induce PMN degranulation; also recorded: not observed | PMN intracellular Ca2+ mobilization (PMN [3]): elicited an increase in [Ca^2+] in PMN | intracellular Ca2+ in PMN (PMN [3]; 5 μg/ml, FIG. 4B): increase in intracellular Ca^2+ | PMN transepithelial migration induced by imposed gradients ([4]; hepoxilin A3 0.5-5 μg/ml, FIG. 4A): induce PMN transepithelial migration in a dose dependent fashion | PMN transepithelial migration (PEEC activity) induced by added lipid [4]: induced transepithelial migration | PMN transepithelial migration (PEEC activity) induced by added lipid ([4]; listed as Hepoxilin A3): saturated response | amount of intact compound recovered from the basolateral compartment (T84 monolayers [5]): low but detectable amount and low | effect of basolateral addition on PMN transepithelial migration [6]: significantly diminished PMN transepithelial migration | stability in acetonitrile/0.1% trifluoroacetic acid [7]: labile | P. aeruginosa-induced PMN transepithelial migration with gradient disruption [8]: inhibited

Source: patent US20040265323A1, “Compositions comprising pathogen elicited epithelial chemoattractant (eicosanoid hepoxilin A3), inhibitors thereof and methods of use thereof” (priority 2003, published 2004)
